What was measured:
ALOMY [1] = experiment: Post-emergence herbicidal effect against ALOMY; type: in vivo, Alopecurus myosuroides; settings: one-leaf stage, 80 g/ha, assessed visually after about 3 weeks vs untreated controls, 100% = plants have died
Protocol: (§1) Seeds of monocotyledonous and dicotyledonous weed and crop plants are laid out in sandy loam soil in wood-fiber pots, covered with soil and cultivated in a greenhouse under good growth conditions. 2 to 3 weeks after sowing, the test plants are treated at the one-leaf stage. The compounds of the invention, formulated in the form of wettable powders (WP) or as emulsion concentrates (EC), are then sprayed onto the green parts of the plants as aqueous suspension or emulsion at a water application rate equating to 600 to 800 l/ha with addition of 0.2% wetting agent. After the test plants have been left to stand in the greenhouse under optimal growth conditions for about 3 weeks, the action of the preparations is assessed visually in comparison to untreated controls (herbicidal action in percent (%): 100% activity=the plants have died, 0% activity=like control plants).

SETVI [2] = experiment: Post-emergence herbicidal effect against SETVI; type: in vivo, Setaria viridis; settings: one-leaf stage, 80 g/ha, assessed visually after about 3 weeks vs untreated controls, 100% = plants have died
Protocol: as §1

HORMU = experiment: Post-emergence herbicidal effect against HORMU; type: in vivo, Hordeum murinum; settings: one-leaf stage, 80 g/ha, assessed visually after about 3 weeks vs untreated controls, 100% = plants have died
Protocol: as §1

AVEFA [3] = experiment: Post-emergence herbicidal effect against AVEFA; type: in vivo, Avena fatua; settings: one-leaf stage, 80 g/ha, assessed visually after about 3 weeks vs untreated controls, 100% = plants have died
Protocol: as §1

LOLRI [4] = experiment: Post-emergence herbicidal effect against LOLRI; type: in vivo, Lolium rigidum; settings: one-leaf stage, 80 g/ha, assessed visually after about 3 weeks vs untreated controls, 100% = plants have died
Protocol: as §1

DIGSA [5] = experiment: Post-emergence herbicidal effect against DIGSA; type: in vivo, Digitaria sanguinalis; settings: one-leaf stage, 80 g/ha, assessed visually after about 3 weeks vs untreated controls, 100% = plants have died
Protocol: as §1

ECHCG [6] = experiment: Post-emergence herbicidal effect against ECHCG; type: in vivo, Echinochloa crus-galli; settings: one-leaf stage, 80 g/ha, assessed visually after about 3 weeks vs untreated controls, 100% = plants have died
Protocol: as §1

VIOTR = experiment: Pre-emergence herbicidal effect against VIOTR; type: in vivo, Viola tricolor; settings: 320 g/ha, scored visually after 3 weeks vs untreated controls, 100% = plants have died
Description: (§2) Seeds of monocotyledonous and dicotyledonous weed plants and crop plants are laid out in sandy loam soil in wood-fiber pots and covered with soil. The compounds of the invention, formulated in the form of wettable powders (WP) or as emulsion concentrates (EC), are then applied to the surface of the covering soil as aqueous suspension or emulsion at a water application rate equating to 600 to 800 L/ha with addition of 0.2% wetting agent.
(§3) After the treatment, the pots are placed in a greenhouse and kept under good growth conditions for the trial plants. The damage to the test plants is scored visually after a test period of 3 weeks by comparison with untreated controls (herbicidal activity in percent (%): 100% activity=the plants have died, 0% activity=like control plants).

ECHCG [7] = experiment: Pre-emergence herbicidal effect against ECHCG; type: in vivo, Echinochloa crus-galli; settings: 320 g/ha, scored visually after 3 weeks vs untreated controls, 100% = plants have died
Description: as §2, §3

LOLRI [8] = experiment: Pre-emergence herbicidal effect against LOLRI; type: in vivo, Lolium rigidum; settings: 320 g/ha, scored visually after 3 weeks vs untreated controls, 100% = plants have died
Description: as §2, §3

DIGSA [9] = experiment: Pre-emergence herbicidal effect against DIGSA; type: in vivo, Digitaria sanguinalis; settings: 320 g/ha, scored visually after 3 weeks vs untreated controls, 100% = plants have died
Description: as §2, §3

AVEFA [10] = experiment: Pre-emergence herbicidal effect against AVEFA; type: in vivo, Avena fatua; settings: 320 g/ha, scored visually after 3 weeks vs untreated controls, 100% = plants have died
Description: as §2, §3

SETVI [11] = experiment: Pre-emergence herbicidal effect against SETVI; type: in vivo, Setaria viridis; settings: 320 g/ha, scored visually after 3 weeks vs untreated controls, 100% = plants have died
Description: as §2, §3

ALOMY [12] = experiment: Pre-emergence herbicidal effect against ALOMY; type: in vivo, Alopecurus myosuroides; settings: 320 g/ha, scored visually after 3 weeks vs untreated controls, 100% = plants have died
Description: as §2, §3

Row | SMILES | Post-emergence action [%] against ALOMY (ALOMY [1]) | Post-emergence action [%] against SETVI (SETVI [2]) | Post-emergence action [%] against HORMU (HORMU) | Post-emergence action [%] against AVEFA (AVEFA [3]) | Post-emergence action [%] against LOLRI (LOLRI [4]) | Post-emergence action [%] against DIGSA (DIGSA [5]) | Post-emergence action [%] against ECHCG (ECHCG [6]) | Pre-emergence action [%] against VIOTR (VIOTR) | Pre-emergence action [%] against ECHCG (ECHCG [7]) | Pre-emergence action [%] against LOLRI (LOLRI [8]) | Pre-emergence action [%] against DIGSA (DIGSA [9]) | Pre-emergence action [%] against AVEFA (AVEFA [10]) | Pre-emergence action [%] against SETVI (SETVI [11]) | Pre-emergence action [%] against ALOMY (ALOMY [12])
1 | CC#Cc1cc(C)c(C2=C(OC(=O)OCC)C3(CCCC(OCCC)C3)NC2=O)c(Cl)c1 (stereo not shown) [Example Q5] | 100% | 100% | 100% | 100% | 100% | 100% | 100% | – | – | – | – | – | – | –
2 | CC#Cc1cc(Cl)c(C2=C(OC(=O)OCC)C3(CCC(OC)CC3)NC2=O)c(CC)c1 (stereo not shown) [Example P21] | 90% | 100% | – | 80% | 80% | 100% | 100% | 90% | 100% | 100% | 100% | 100% | 100% | 100%
3 | CC#Cc1cc(C)c(C2=C(OC(=O)OCC)C3(CCC(OCCOC)CC3)NC2=O)c(Cl)c1 (stereo not shown) [Example P17] | 100% | 100% | – | 100% | 100% | 100% | 100% | 100% | 100% | 100% | 100% | 100% | 100% | 100%
4 | CC#Cc1cc(C)c(C2=C(O)C3(CCCC(OCCC)C3)NC2=O)c(Br)c1 (stereo not shown) [Example D5] | 100% | 100% | – | 100% | 100% | 100% | 100% | 100% | 100% | 100% | 100% | 100% | 100% | 100%
5 | CC#Cc1cc(C)c(C2=C(OC(=O)OCC)C3(CCC(CC)CC3)NC2=O)c(Cl)c1 (stereo not shown) [Example P3] | 100% | 100% | 100% | – | 100% | 100% | 100% | – | – | – | – | – | – | –
6 | CC#Cc1cc(C)c(C2=C(OC(=O)OCC)C3(CCC(OC)CC3)NC2=O)c(Cl)c1 (stereo not shown) [Example P11] | 100% | 100% | 90% | 100% | 100% | 100% | 100% | – | – | – | – | – | – | –
7 | CC#Cc1cc(C)c(C2=C(O)C3(CCC(OCCOC)CC3)NC2=O)c(Cl)c1 (stereo not shown) [Example E16] | 100% | 100% | – | 100% | 100% | 100% | 100% | 100% | 100% | 100% | 100% | 100% | 100% | 100%
8 | CC#Cc1cc(C)c(C2=C(O)C3(CCC(OC)CC3)NC2=O)c(Br)c1 (stereo not shown) [Example E21] | 100% | 100% | – | 90% | 100% | 100% | 100% | 100% | 100% | 100% | 100% | 100% | 100% | 100%
9 | CC#Cc1cc(C)c(C2=C(O)C3(CCCC(OCC(C)C)C3)NC2=O)c(Cl)c1 (stereo not shown) [Example D9] | 100% | 100% | – | 90% | 90% | 90% | 100% | 100% | 100% | 100% | 100% | 100% | 100% | 100%
10 | CC#Cc1cc(C)c(C2=C(O)C3(CCCC(OCCOC)C3)NC2=O)c(Br)c1 (stereo not shown) [Example D6] | 100% | 100% | – | 100% | 100% | 100% | 100% | 100% | 100% | 100% | 100% | 100% | 100% | 100%
11 | CC#Cc1cc(C)c(C2=C(OC(=O)OCC)C3(CCC(OC)CC3)NC2=O)c(Br)c1 (stereo not shown) [Example P13] | 100% | 100% | – | 100% | 100% | 100% | 100% | 100% | 100% | 100% | 100% | 100% | 100% | 100%
